Reference: patent US11666048B2, “Treatment for plants in conjunction with harvesting” (CORBET SCIENTIFIC, LLC, priority 2017, dated 2023)
Where “and” joins values, the source holds several entries; their conditions need not be identical. Equal entries are not always repeated. Entries after “also recorded” stand apart in the source; their conditions may differ.

What was measured:
[1] = system: harvested grapefruit; test: Post-harvest water-loss protection in fruit (Example 5); assay type: in vivo; settings: ambient storage
Description: Grapefruit trees were separated into three groups. […] Spray treatment formulations were applied using a commercial air-blast sprayer (250 gallons/acre). Size 40 fruit were harvested in quadruplicate, washed, and waxed on Day 0. The washed and waxed fruit as then stored at ambient conditions (approximately 70-75° F.) for 40 days. Size 40 fruit harvested on Day 1 were left unwashed and unwaxed prior to storage (unwashed and unwaxed samples). To test the ability of the aqueous formulation of the present invention to protect harvested fruit from water loss, stored fruit were observed 8 and 20 days after harvest.

[2] = system: harvested grapefruit; test: Post-harvest disease protection in fruit: healthy fruit, total decay, stem-end rind breakdown (Example 5); assay type: in vivo; settings: after 40 days in storage
Description: (§1) Grapefruit trees were separated into three groups. […] Spray treatment formulations were applied using a commercial air-blast sprayer (250 gallons/acre). Size 40 fruit were harvested in quadruplicate, washed, and waxed on Day 0. The washed and waxed fruit as then stored at ambient conditions (approximately 70-75° F.) for 40 days. Size 40 fruit harvested on Day 1 were left unwashed and unwaxed prior to storage (unwashed and unwaxed samples). After 40 days in storage, no significant differences were observed between treated and untreated fruit in terms of the percentage of healthy fruit and the percentage of total decay in the two groups.

[3] = system: Diplodia; test: Post-harvest disease protection in fruit: Diplodia (Example 5); assay type: in vivo, grapefruit; settings: after 40 days in storage
Description: as §1

[4] = system: Green Mold; test: Post-harvest disease protection in fruit: Green Mold (Example 5); assay type: in vivo, grapefruit; settings: after 40 days in storage
Description: as §1

[5] = system: Anthracnose; test: Post-harvest disease protection in fruit: Anthracnose (Example 5); assay type: in vivo, grapefruit; settings: after 40 days in storage
Description: as §1

[6] = system: harvested grapefruit; test: Water retention and disease protection in harvested grapefruit, pre-harvest spray (Example 3); assay type: in vivo
Description: Grapefruit trees were separated into three groups. Fruit in Groups 2 and 3 were treated prior to harvesting. Group 3 was treated with an aqueous treatment formulation comprising 95.70 wt % water, 2.00 wt % ACUSOL® 823, 0.10 wt % PVA (100,000 MW), 0.10 wt % ZnSO4 monohydrate, 0.10 wt % Antifoam® 8810, and 2.00 wt % TEA. […] Group 1 was untreated and served as a control. Groups 2 and 3 fruit were spray treated on Day −14 in the grove. Fruit was not de-greened. Fruit was weighed on Day 0, prior to packaging. Size 27-36 fruit were packed in honeycomb cartons, whereas size 40 fruit was packed in regular 4/5 cartons. Packed fruit was inspected on Day 68.

[7] = average over cartons of the group

SMILES: O=P([O-])([O-])O.[K+].[K+] [DKP, di-potassium phosphate]
- Wt. Loss (%) Day 8 ([1]; not washed and waxed): 1.43 a %
- Wt. Loss (%) Day 20 ([1]; not washed and waxed): 4.08 a %
- Wt. Loss (%) Day 8 ([1]; washed and waxed): 1.11 c %
- Wt. Loss (%) Day 20 ([1]; washed and waxed): 3.89 a %
- SERB (stem-end rind breakdown) (%) [2]: 7.15% and 7.15 ab %
- Total Decay (%) [2]: 16.31%
- Healthy (%) ([2]; washed and waxed fruit): 77.15%
- Disease Diplodia (%) [3]: 6.5%
- Disease Green Mold (%) [4]: 3.96%
- Disease Anthracnose (%) [5]: 5.9%

SMILES: O=P([O-])(O)O.[K+] [MKP, mono potassium phosphate]
- Average Weight Difference (%) [6, 7]: 12.5%
- Average Δ Weight (lbs) [6, 7]: 5 lbs
- Weight Difference (%) ([6]; fruit size 27, Day 0 to Day 54): 11%
- Δ Weight (lbs) ([6]; fruit size 27, Day 0 to Day 54): 4.4 lbs and 4.6 lbs
- Weight Difference (%) ([6]; fruit size 32, Day 0 to Day 54): 14% and 13%
- Δ Weight (lbs) ([6]; fruit size 32, Day 0 to Day 54): 5.6 lbs and 5.2 lbs
- Disease (puncture) ([6]; fruit size 32, fruit per carton at inspection): 1 puncture
- Weight Difference (%) ([6]; fruit size 36, Day 0 to Day 54): 14%
- Δ Weight (lbs) ([6]; fruit size 36, Day 0 to Day 54): 5.6 lbs and 5.8 lbs
- Disease ([6]; fruit size 36, fruit per carton at inspection): 4 rot and 3 rot
- Weight Difference (%) ([6]; fruit size 40, Day 0 to Day 54): 12% and 11%
- Δ Weight (lbs) ([6]; fruit size 40, Day 0 to Day 54): 4.6 lbs and 4.2 lbs
- Disease ([6]; fruit size 40, fruit per carton at inspection): 1 rot
- shine and firmness compared with control ([6]; packed fruit at inspection): negligible
- Fruit Condition ([6]; remarks printed beside carton lines, probably for the whole group, footnote: ⅔ fruit per carton were very firm): no shine; also recorded: Like control; also recorded: very soft
